Data taken from patent publication US10603325B2, “Methods of treating age-related symptoms in mammals and compositions therefor” (University of Maryland, priority 2014, dated 2020).
Entries after “also recorded” stand apart in the source; their conditions may differ.

Columns and labels:
[1] = system: normal and HGPS fibroblasts; experiment: ATP assay; type: cell-based, human; settings: MB 100 nM, 5 weeks, vs mock
Experimental: (§1) (Upper panel). Normalized relative HP1α protein levels in each sample are shown in the lower graph.
(§2) To evaluate the effects of MB on mitochondria, ATP levels, mitochondrial superoxide (MitoSOX) and overall intracellular ROS (DCFDA) in Mock or MB-treated cells.
Intracellular ATP content was measured by using luminescence ATP detection System (ATPlite, PerkinElmer). Briefly, fibroblast cells were harvested with 0.05% trypsin-EDTA and counted. The same number of 2,500 cells from each fibroblast sample was seeded onto a 96-well black plate (triplicate). After the cells had been lysed with the lysis buffer for five minutes, the substrate solution was added and mixed for another five minutes to conduct the reaction for light generation. After dark adaption for 10 minutes, the luminescence intensity of each well was acquired at luminescence mode with SoftMax Pro software connecting to SpectraMax M5 Microplate Reader.

HGPS cells [2] = experiment: Perinuclear heterochromatin (TEM) and HP1α immunostaining/western blotting; type: cell-based, human
Text: as §1
Based on the results from FIG. 4 and FIGS. 5A-D, it was hypothesized that While MB is a universal mitochondrial-targeting antioxidant for both normal and HGPS cells, it has a specific role in HGPS cells by dislocating progerin away from the nuclear membrane. Previous studies reported that the anchorage of progerin to the nuclear membrane caused a loss of perinuclear heterochromatin in HGPS Cells. […] The rescue of heterochromatin loss by MB was further verified by immunostaining and western blotting using an antibody against heterochromatin protein 1alpha (HP1α).
(§3) Passage-matched normal or HGPS skin fibroblasts were grown on 35-mm glass bottom dish until 80% confluence. Cells were prepared for transmission electron microscopic analysis following the protocol of McCord et al. Briefly, cells were fixed with 2.5% glutaraldehyde in 0.1 M sodium cacodylate (pH 7.4) for one hour at room temperature. Specimens were washed three times with 0.1 M sodium cacodylate and post-fixed for one hour with 1% osmium tetroxide in 0.1 M sodium cacodylate at room temperature. After washing three times with distilled water, specimens were incubated with 2% aqueous uranyl acetate at room temperature. The specimens were dehydrated in ethanol gradients: 35% for 10min, 50% for 10min, 70% for 10min, for 95% for 10 min, and 100% for 3×5 min. The infiltration was performed in EtOH: EPON resin mixture at various ratio from 1:1, 1:2, 1:3 or complete EPON for one hour each ratio. The specimens were finally embedded in complete EPON at 60° C. over night. […] Mitochondrial morphological quantification was conducted blindly by a trained TEM expert. Two observers scored over 360 mitochondria from 10 randomly selected cells in each group blindly. […] Over 300 mitochondria in either normal or HGPS lines were blindly scored according to these criteria.

[3] = system: normal and HGPS fibroblasts; experiment: ROS assays by flow cytometry (MitoSOX, DCFDA); type: cell-based, human
Experimental: as §1, §2
To measure mitochondrial superoxide, MB or other antioxidant treated skin fibroblast cells cultured on 60-mm dishes were incubated with fresh complete medium containing 5 μM MitoSOXRed (Life Technologies) at 37° C. After 30 minutes, stained cells were harvested by trypsin digestion and rinsed twice with PBS. Single cell suspensions in 400 μl PBS were prepared for FACS analysis (FACS Canto II; BD). MitoSOX Red was excited by laser at 488 nm, and the data was collected at 582±21 nm. See results in FIG. 10.
To measure mitochondrial superoxide, cells grown on 60-mm dishes were incubated with fresh complete medium containing 5 μM MitoSOX Red (Life Technologies, M36008) at 37° C. After 30 minutes, stained cells were harvested by trypsin digestion and rinsed twice with PBS. Single cell suspensions in 400 μl PBS were prepared for FACS analysis (FACS Canto II; BD). […] Mitochondrial membrane potential (MMP, Life Technologies, M34152) and Annexin V-positive apoptotic cells (BD Pharmingen, 556547) were measured according to manufacturer's protocol. Flow cytometry was performed by FACS Cantoll (BD) and the data were analyzed by FlowJo Software.

[4] = system: EpiDerm Full Thickness (EFT-412); experiment: ECM gene expression analysis (quantitative PCR array); type: cell-based; settings: MB for two weeks
Experimental: The expression of ECM genes were analyzed by quantitative PCR array on EpiDerm Full Thickness (EFT-412).
EFT-412 tissues were treated with MB for 2 weeks. […] Using RCP arrays for ECM remodeling genes. See results obtained in FIG. 14.

HGPS cells [5] = experiment: Senescence: SA-β-gal assay and p16 expression analysis; type: cell-based, human; settings: MB-treated vs mock-treated HGPS cells
Experimental: SA-β-gal activity assay was performed according to the manufacturer's protocol (#9860; Cell Signaling). Briefly, fibroblasts cells grown on six-well plate were fixed in 1× fixative solution containing 2% formaldehyde and […] for 10 minutes, and then stained overnight at 37° C. with the (3-galactosidase staining solution at pH 6.0 for 15 hours. Images were acquired by Zeiss AX10 microscope with a SPOT PURSUIT camera.

[6] = system: mitochondria in normal and HGPS fibroblasts; experiment: TEM scoring of mitochondrial abnormalities; type: cell-based, human; settings: MB 100 nM, 8 weeks
Experimental: as §1, §2
as §3, with “min.” for “min. The infiltration was performed in EtOH: EPON resin mixture at various ratio from 1:1, 1:2, 1:3 or complete EPON for one hour each ratio. The specimens were finally embedded in complete EPON at 60° C. over night.”

progerin in HGPS cells = experiment: Confocal microscopy of progerin distribution; type: cell-based, human; settings: MB treated HGPS cells, anti-progerin antibody staining
[7] = system: Epiderm Full Thickness (EFT-412) skin tissue; experiment: Histological analysis (H&E) of skin tissue; type: cell-based; settings: MB at various concentration for two weeks
Text: H&E staining on the MB treated skin tissues. […] See the results obtained in FIG. 15.

HGPS fibroblasts = experiment: RNA-seq gene expression differential analysis; type: cell-based, human
Experimental: (§4) FIG. 6(A)-(B): Methylene Blue Rescues Gene Expression in HGPS Cells • (A) Pie chart showing the percentages and (B) the counted gene numbers of unaffected- and affected-genes in paired comparison among four groups (Normal+Vehicle vs. Progeria+Vehicle; Normal+Vehicle vs. Normal+MB; Progeria+Vehicle vs. Progeria+MB; and Normal+Vehicle+Progeria+MB).
(§5) Chromatin re-organization after MB treatment may induce gene expression changes. To examine the effects of MB on gene expression, RNA-seq was conducted in Mock and MB treated normal and HGPS cells, and gene expression differential analysis was performed using Tophat and Cufflinks suite of tools (see Methods). The RNA-seq data was obtained from two biological replicates; each included four groups of samples (Normal+Vehicle; Normal+MB; HGPS+Vehicle; and HGPS+MB). Pairwise comparisons were conducted (FIG. 6A-B). Consistent with previous studies, there are more than 20% differentially expressed genes (up/down: 7.79%/14.18%) in HGPS cells vs. normal fibroblasts (FIG. 6A-1).
(§6) For RNA sequencing experiments, the cell pellets of Normal or HGPS fibroblasts were collected from two individually cultured cells treated with vehicle or 100 nM MB from P15 or P16 to P20. Total RNA was extracted with Trizol (Life Sciences), followed by RNA precipitation with isopropanol, then purified using the RNeasy Mini Kit (Qiagen). The RNA quality was checked using Agilent 2100 Bioanalyzer showing good RIN numbers (8.90=9.70) in all eight samples. The RNA-seq sample preparation and sequencing were conducted according to the Illumina Truseq RNA sample preparation V2 guide by the IBBR Sequencing Core Facility at the University of Maryland. RNA-seq mapping and gene expression differential analysis was performed using Tophat and Cufflinks suite of tools as described previously by Trapnell et al.

normal fibroblasts = experiment: RNA-seq gene expression differential analysis; type: cell-based, human; settings: Normal+Vehicle vs. Normal+MB, 100 nM
Experimental: as §4, §5, §6

[8] = system: PGC-1α in normal and HGPS fibroblasts; experiment: PGC-1α expression (western blot, quantitative RT-PCR); type: cell-based, human; settings: MB 100 nM, 8 weeks
skin fibroblast cells = experiment: Cell viability after H2O2 insults; type: cell-based, human; settings: H2O2 1 mM, 60 minutes; low and high concentrations of MB
Experimental: MB or other antioxidant treated skin fibroblast cells were incubated with PBS containing H2O2 at 1 mM for 60 minutes. The cells were then washed three times using PBS and subjected to a cellular stress assay (as described above in 2). See the results obtained in FIG. 11.

Skin tissues = experiment: Skin hydration test (DPM9003); type: cell-based; settings: MB for 2 weeks
Experimental: Skin tissues were treated with MB for 2 weeks, then skin hydration was detected by using DPM9003 with 4 mm probe. […] See the results obtained in FIG. 13. The noted small variations appear to have been due to pressure and leakage of medium.

[9] = HGPS+Vehicle vs. HGPS+MB, 100 nM

Structure (SMILES): CN(C)c1ccc2nc3ccc(N(C)C)cc3[s+]c2c1.[Cl-] [MB, 3,7-bis(dimethylamino)-phenothiazin-5-ium chloride]
- ATP production [1]: Significant improvements in ATP production
- HP1α protein level (HGPS cells [2]; MB 100 nM, 6 weeks): upregulation of HP1α protein level
- nuclear HP1α staining (HGPS cells [2]; MB 100 nM, 6 weeks): increase in nuclear HP1α staining
- perinuclear heterochromatin organization (TEM) (HGPS cells [2]; MB 8 weeks): readily apparent restoration of perinuclear heterochromatin organization
- ROS levels (MitoSOX, DCFDA) ([3]; MB 100 nM, 8 weeks, vs mock): reductions in ROS levels
- MitoSOX level (mitochondria specific superoxide) ([3]; four weeks treatment, normal and HGPS fibroblasts, comparison with NAC, MitoQ, MitoTEMPO): significant decrease of MitoSOX level
- normal gene expression (3D skin tests) [4]: little or no effect on normal gene expression
- senescence (SA-β-gal, p16 expression) (HGPS cells [5]): younger than the mock-treated cells
- number of severely defective mitochondria [6]: significant reduction in the number of severely defective mitochondria
- progerin distribution in nucleus (progerin in HGPS cells): clear redistribution of progerin from the nuclear rim into the nucleoplasm
- dermis / skin thickness [7]: increase dermis thickness; also recorded: Increases Skin Thickness
- genes affected by MB, down (HGPS fibroblasts; [9]): 0.45%
- genes affected by MB, up (HGPS fibroblasts; [9]): 1.52%
- number of differentially expressed genes (HGPS fibroblasts; Normal+Vehicle vs. HGPS+MB, after one month of MB treatment): 1674
- genes with significant expression changes, down (normal fibroblasts): 0.14%
- genes with significant expression changes, up (normal fibroblasts): 0.19%
- expression of PGC-1α [8]: stimulated the expression of PGC-1α
- cell viability upon hydrogen peroxide treatment (skin fibroblast cells): significantly improved cell viability
- skin hydration (Skin tissues): did not increase skin hydration
